Assay [1] concerns DU145 (prostate carcinoma). The assay can be described thus: In vitro growth inhibition screen (sulphorhodamine B), DU145. Type of assay: cell-based, human. Conditions: DU145 cells, incubated for 48 hours, sulphorhodamine B dye; read-out: GI50 (concentration which inhibits the cell growth by 50%), DU145 Prostate carcinoma. Put shortly: (§1)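 GI50 (50% growth inhibition) from sulphorhodamine B staining of TCA-fixed cells, OD 490. Compounds at ten-fold dilutions from ≧100 μM down to 10 nM were added a day after plating and left 48 h; culture in RPMI 1640 with 10% FCS, 37 °C, 5% CO2.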
On the technique in general: The SRB assay estimates cell density from bound dye.

The subject of assay [2] is HT29 (colorectal adenocarcinoma). Kind of assay: In vitro growth inhibition screen (sulphorhodamine B), HT29. Type of assay: cell-based, human. Conditions: HT29 cells, incubated for 48 hours, sulphorhodamine B dye; read-out: GI50 (concentration which inhibits the cell growth by 50%), HT29 Colorectal adenocarcinoma. A digest of the protocol: as §1
The subject of another assay is LOX (melanoma). Kind of assay: In vitro growth inhibition screen (sulphorhodamine B), LOX. Conditions: LOX cells, incubated for 48 hours, sulphorhodamine B dye; read-out: GI50 (concentration which inhibits the cell growth by 50%), LOX Melanoma. It counts as cell-based, human. Put shortly: as §1
The subject of assay [3] is MCF7 (breast adenocarcinoma). The assay can be described thus: In vitro growth inhibition screen (sulphorhodamine B), MCF7. The conditions noted are these: MCF7 cells, incubated for 48 hours, sulphorhodamine B dye; read-out: GI50 (concentration which inhibits the cell growth by 50%), MCF7 Breast adenocarcinoma. Type of assay: cell-based, human. A digest of the protocol:
as §1

The subject of assay [4] is MCF7ADR (adriamycin resistant breast adenocarcinoma). The assay can be described thus: In vitro growth inhibition screen (sulphorhodamine B), MCF7ADR. It counts as cell-based, human. Conditions: MCF7ADR cells, incubated for 48 hours, sulphorhodamine B dye; read-out: GI50 (concentration which inhibits the cell growth by 50%), MCF7ADR Adriamycin Resistant Breast adenocarcinoma. A digest of the protocol:
as §1

Assay [5] concerns U251 (human glioblastoma). The assay can be described thus: In vitro growth inhibition screen (sulphorhodamine B), U251. The conditions noted are these: U251 cells, incubated for 48 hours, sulphorhodamine B dye; read-out: GI50 (concentration which inhibits the cell growth by 50%), U251 Human glioblastoma astrocytoma. It counts as cell-based. Put shortly:
as §1

Consider “N-Allyl-2,3,4-tri-O-benzyl-1,5-dideoxy-1,5-imino-D-glucitol [Compound No. 71]”, for which the GI50 in assay [1] worked out at 14.5 µM; in assay [2], 3.5 µM; with LOX (melanoma), 9.5 µM; in assay [3] it was 5.4 µM; in assay [4] it was 9.2 µM; in assay [5] it was 8.3 µM.
As for “N-Propyl-6-[4-chlorophenyl-3(2H,4H)-1,2,4-triazol-3-onyl]-D-gluco-δ-lactam [Compound No. 88]”, the GI50 amounted to 144 µM in assay [1]; 111 µM in assay [2]; 135 µM with LOX (melanoma); 102 µM in assay [3]; 107 µM in assay [4]; 90.7 µM in assay [5].
Take “N-{4-[Phenyl]piperazinyl carboxamido}-D-gluco-δ-lactam [Compound No. 80]”: the GI50 in assay [1] stood at 90.7 µM; in assay [2] it was 100 µM; with LOX (melanoma), 75.9 µM; in assay [3] it was 69.4 µM; in assay [4], 60.1 µM; in assay [5], 59.9 µM.

The record behind these values is patent publication US20060241114A1, “Derivatives of azasugars as anticancer agents” (priority 2003, published 2006).
